Structures can show the parent of a compound that is named as a salt. Where two headings read alike, the source gives them in different places. Peptide text beside a SMILES is read from it.
Legend:
[1] = test system: AST from Clostridium innocuum strain 554WT; experiment: AST assay, sulfate acceptors (phenolic compounds, tyrosylpeptides) with p-nitrophenylsulfate as sulfate donor; type: biochemical; conditions: for Yield (%) of sulfated tyrosylpeptide: tyrosylpeptides as sulfate acceptors
[2] = test system: AST of Clostridium innocuum 554 ATCC 55803 (Strain 554WT); experiment: AST assay, sulfate donor substrate specificity with tyramine as sulfate acceptor; type: biochemical; conditions: for Activity (%) as sulfate donor: relative to p-nitrophenylsulfate designated as 100% activity, tyramine as sulfate acceptor; for specific activity as donor substrate: normalized to p-acetylphenylsulfate as donor baseline at 100% activity
Procedure: (§1) At each stage of purification, the AST activity was assayed by incubating the AST with 0.1 M Tris (pH 8.0), 5.0 mM p-nitrophenylsulfate (as aryl sulfate donor) and 2.5 mM tyramine (as sulfate acceptor). The reaction was incubated at 37° C. and terminated by addition of 1 N NaOH. The amount of p-nitrophenol formed during the reaction was determined by an absorbance reading at 405 nm. One unit of enzyme is equal to 1 mmol of p-nitrophenol formed per minute per milligram protein. Other aryl sulfate donors and phenolic acceptors were used at similar concentrations. Peptide acceptors were typically used in the 250-500 mM range. Formation of sulfated phenols and peptides was also quantitated via HPLC, using a 30% acetonitrile/70% water mobile phase. A UV detector was used to monitor peptides at 280 nm. Other wavelengths were used with various sulfated phenolic products and substrates as appropriate.
The AST assay was performed as described in Example 2 using each of the sulfate donors listed in Table 4, with tyramine as the sulfate acceptor in each case. […] Activity is shown as a percentage relative to the activity obtained with p-nitrophenylsulfate, which is designated as 100% activity.

Clostridium innocuum AST = experiment: Effectors of arylsulfotransferase activity; type: biochemical; conditions: no effect / inhibitory / stimulatory
Excerpt: The above-described physical and biochemical properties of a Clostridium innocuum AST of the present invention are summarized in Table 3.

[3] = test system: bacterial arylsulfotransferase; conditions: prior bacterial arylsulfotransferase; Kobashi et al., 1987; cited from earlier work
[4] = test system: Eubacterium nodatum arylsulfotransferase; experiment: Sulfation of CCK-8 by Eubacterium nodatum enzyme; type: biochemical; conditions: under conditions similar to the prior art
[5] = test system: Eubacterium A-44 arylsulfotransferase; conditions: p-acetylphenylsulfate as donor baseline at 100% activity; Kobashi et al., 1987; cited from earlier work
[6] = test system: AST of Clostridium innocuum 554 ATCC 55803 (Strain 554WT); experiment: Apparent Km from double reciprocal plots; type: biochemical
Procedure: as §1
In this AST assay, various concentrations of p-nitrophenylsulfate (as a sulfate donor) and of tyramine (as a sulfate acceptor) were plotted against the corresponding enzyme reaction rate in a double reciprocal plots (FIG. 4). AST activity was determined as described previously.

[7] = p-nitrophenylsulfate as sulfate donor
[8] = phenolic compounds, p-nitrophenylsulfate as sulfate donor, tyramine 100

CSCC[C@H](NC(=O)[C@H](Cc1c[nH]c2ccccc12)NC(=O)CNC(=O)[C@@H](NC(=O)[C@H](Cc1ccc(O)cc1)NC(=O)[C@H](CC(=O)O)NC(=O)[C@H](CCC(N)=O)NC(=O)[C@@H]1CCC(=O)N1)[C@@H](C)O)C(=O)N[C@@H](CC(=O)O)C(=O)N[C@@H](Cc1ccccc1)C(N)=O (HELM PEPTIDE1{[Glp].Q.D.Y.T.G.W.M.D.F.[am]}$$$$V2.0)
Yield (%) of sulfated tyrosylpeptide [1, 7]: 4.8%

Nc1ncnc2c1ncn2[C@@H]1O[C@H](COP(=O)(O)OS(=O)(=O)O)[C@@H](OP(=O)(O)O)[C@H]1O [3'-phosphoadenosine-5'-phosphosulfate]
utilization as a sulfate donor ([2]; in words): does not utilize
Activity (%) as sulfate donor [2]: 0%

Cc1cc(=O)oc2cc(O)ccc12 [4-methylumbelliferone]
Activity (%) as sulfate acceptor [1, 8]: 86%

Cc1cc(=O)oc2cc(OS(=O)(=O)O)ccc12 [4-methylumbelliferyl sulfate]
Activity (%) as sulfate donor [2]: 46%

O=C(O)CN(CCN(CC(=O)O)CC(=O)O)CC(=O)O [EDTA]
Effectors: effect on enzyme activity (Clostridium innocuum AST): no effect

CC[C@H](C)[C@H](NC(=O)[C@H](Cc1ccc(O)cc1)NC(=O)[C@@H](NC(=O)[C@H](CCCNC(=N)N)NC(=O)[C@@H](N)CC(=O)O)C(C)C)C(=O)N[C@@H](Cc1cnc[nH]1)C(=O)N1CCC[C@H]1C(=O)N[C@@H](Cc1ccccc1)C(=O)N[C@@H](Cc1cnc[nH]1)C(=O)N[C@@H](CC(C)C)C(=O)O [angiotensin I] (H-DRVYIHPFHL-OH)
Yield (%) of sulfated tyrosylpeptide [1, 7]: 8.8%

NC(=O)CC[C@@H]1NC(=O)[C@H](Cc2ccccc2)NC(=O)[C@H](Cc2ccc(O)cc2)NC(=O)[C@@H](N)CSSC[C@@H](C(=O)N2CCC[C@H]2C(=O)N[C@@H](CCCN=C(N)N)C(=O)NCC(N)=O)NC(=O)[C@H](CC(N)=O)NC1=O [arg8 vasopressin]
Yield (%) of sulfated tyrosylpeptide [1, 7]: 35.8%

Oc1cc(O)c2c(c1)OC(c1ccc(O)c(O)c1)C(O)C2 (stereo not shown) [catechin]
Activity (%) as sulfate acceptor [1]: 150

Oc1ccccc1O [catechol]
Activity (%) as sulfate acceptor [1]: 208

CSCC[C@H](NC(=O)[C@H](Cc1ccc(O)cc1)NC(=O)[C@@H](N)CC(=O)O)C(=O)NCC(=O)N[C@@H](Cc1c[nH]c2ccccc12)C(=O)N[C@@H](CCSC)C(=O)N[C@@H](CC(=O)O)C(=O)N[C@@H](Cc1ccccc1)C(N)=O [cholecystokinin8, cholecystokinin-8]
yield of sulfation of CCK-8 ([1]; Clostridium arylsulfotransferase, under conditions similar to the prior art): ≥ 60%
Yield (%) of sulfated tyrosylpeptide [1, 7]: 35.4%
highest reported yield of sulfated CCK-8 [3]: ~31.3%
yield of sulfation of CCK-8 [4]: ≥ 45%

C[C@@H](NC(=O)[C@@H](N)Cc1ccc(O)cc1)C(=O)N[C@@H](Cc1ccccc1)C(=O)NCC(=O)N[C@@H](Cc1ccc(O)cc1)C(=O)N1CCC[C@H]1C(=O)N[C@@H](CO)C(N)=O [dermorphin]
Yield (%) of sulfated tyrosylpeptide [1, 7]: 67.0%

C[C@]12CC[C@@H]3c4ccc(OS(=O)(=O)O)cc4CC[C@H]3[C@@H]1CCC2=O [estrone sulfate]
specific activity as donor substrate [5]: about 3.4%
specific activity as donor substrate [2]: about 17%
Activity (%) as sulfate donor [2]: 22%

O=S(=O)(O)Oc1c[nH]c2ccccc12 [indoxyl sulfate]
specific activity as donor substrate [5]: about 2.2%
specific activity as donor substrate [2]: about 27%
Activity (%) as sulfate donor [2]: 35%

N=C(N)NCCC[C@H](NC(=O)[C@@H](N)Cc1ccc(O)cc1)C(=O)O [kyotorphin]
Yield (%) of sulfated tyrosylpeptide [1, 7]: 16.8%

CC(C)C[C@H](NC(=O)[C@H](Cc1ccccc1)NC(=O)CNC(=O)CNC(=O)[C@@H](N)Cc1ccc(O)cc1)C(=O)O [leu enkephalin]
Yield (%) of sulfated tyrosylpeptide [1, 7]: 92.5%

COC(=O)c1ccc(O)cc1 [methyl p-hydroxybenzoate]
Activity (%) as sulfate acceptor [1]: 65

O=[N+]([O-])c1ccc(O)c(OS(=O)(=O)O)c1 [p-nitrocatechol sulfate]
Activity (%) as sulfate donor [2]: 196%

Oc1ccccc1 [phenol]
Activity (%) as sulfate acceptor [1]: 194

CSCC[C@H](NC(=O)[C@H](CC(C)C)NC(=O)CNC(=O)[C@H](Cc1ccc(O)cc1)NC(=O)[C@H](Cc1ccccc1)NC(=O)[C@H](CCCCN)NC(=O)[C@H](CC(N)=O)NC(=O)[C@@H]1CCCN1C(=O)[C@H](CC(=O)O)NC(=O)[C@H](C)NC(=O)[C@@H]1CCC(=O)N1)C(N)=O [physalaemin] (HELM PEPTIDE1{[Glp].A.D.P.N.K.F.Y.G.L.M.[am]}$$$$V2.0)
Yield (%) of sulfated tyrosylpeptide [1, 7]: 10.5%

CC(C)C[C@H](NC(=O)[C@H](Cc1ccc(O)cc1)NC(=O)[C@@H](N)CCCNC(=N)N)C(=O)N1CCC[C@H]1C(=O)N[C@H](C(=O)O)[C@@H](C)O [proctolin] (H-RYLPT-OH)
Yield (%) of sulfated tyrosylpeptide [1, 7]: 19.8%

NCCc1ccc(O)cc1 [tyramine, 4-hydroxyphenethylamine]
Activity (%) as sulfate acceptor [1, 8]: 100%
Km [6]: 1630 µM

COC(=O)[C@@H](N)Cc1ccc(O)cc1 [tyrosine methyl ester]
Activity (%) as sulfate acceptor [1, 8]: 59%

N[C@@H](Cc1ccc(O)cc1)C(=O)O [tyrosine]
Activity (%) as sulfate acceptor [1]: 13

hirudin (54-65) (GDFEEIPEEYLQ) [Gly-Asp-Phe-Glu-Glu-lle-Pro-Glu-Glu-Tyr-Leu-Gin]
Yield (%) of sulfated tyrosylpeptide [1, 7]: 7.7%

phenolphthalein sulfate
Activity (%) as sulfate donor [2]: 12%

— US6225100A, “Arylsulfotransferase” (DCV, Inc., priority 1999, dated 2001)
